Patent US20240277658A1, “NLRP3 ACTIVATORS FOR USE IN THE TREATMENT OF INFECTIOUS DISEASES OR CANCER BY ACTIVATING NLRP3 INFLAMMASOME” (ALBERT-LUDWIGS-UNIVERSITÄT FREIBURG, priority 2020, published 2024)
Where “and” joins values, the source holds several entries; their conditions need not be identical. Equal entries are not always repeated. Where two headings read alike, the source gives them in different places.

What was measured:
BMDCs = experiment: LDH release (lytic cell death, pyroptosis) from LPS-primed BMDCs; format: cell-based, mouse; conditions: compound 50 μM; for Average (% positive control): LDH release, positive control nigericin 5 μM; for cytotoxicity at 50 µM: Mus musculus, BMDC, LPS-primed BMDCs
Summary of the method: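 LDH released into medium, detected colorimetrically, served as the pyroptosis read-out in triplicate. LPS-primed (50 ng ml^−1, 3 h) murine bone marrow-derived dendritic cells received test compounds, typically 50 μM, or nigericin (5 μM), R837 or CL097 (100 μM) for 3 hours.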

NLRP3 inflammasome = molecular target: T1, NLRP3 inflammasome (Mus musculus, UniProt Q8R4B8); experiment: IL-1β release from LPS-primed BMDCs (ELISA) as readout of NLRP3 inflammasome activation; format: cell-based; conditions: compound 50 μM; for Average (% positive control): IL-1β release, positive control nigericin 5 μM; for Average IL-1β / IL-1β: LPS-primed BMDCs; for IL-1β: single replicates
T1 construct: endogenous in cells; host or cells: primary mouse bone marrow-derived dendritic cells (BMDCs), LPS-primed
Summary of the method: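 NLRP3 inflammasome activation was read out as IL-1β released into the supernatant, measured by ELISA. Murine BMDCs were primed with LPS (50 ng ml^−1, 3 hours), then incubated with compounds for 3 hours, with each condition run in three technical replicates. Nigericin at 5 μM acted as the positive control activator, and IL-1β release was also expressed as a percentage of that control.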

[1] = read-out: Average LDH release (% of max.)
[2] = single replicates, read-out: LDH release (% of max.)

T1 sequence (Q8R4B8 whole entry): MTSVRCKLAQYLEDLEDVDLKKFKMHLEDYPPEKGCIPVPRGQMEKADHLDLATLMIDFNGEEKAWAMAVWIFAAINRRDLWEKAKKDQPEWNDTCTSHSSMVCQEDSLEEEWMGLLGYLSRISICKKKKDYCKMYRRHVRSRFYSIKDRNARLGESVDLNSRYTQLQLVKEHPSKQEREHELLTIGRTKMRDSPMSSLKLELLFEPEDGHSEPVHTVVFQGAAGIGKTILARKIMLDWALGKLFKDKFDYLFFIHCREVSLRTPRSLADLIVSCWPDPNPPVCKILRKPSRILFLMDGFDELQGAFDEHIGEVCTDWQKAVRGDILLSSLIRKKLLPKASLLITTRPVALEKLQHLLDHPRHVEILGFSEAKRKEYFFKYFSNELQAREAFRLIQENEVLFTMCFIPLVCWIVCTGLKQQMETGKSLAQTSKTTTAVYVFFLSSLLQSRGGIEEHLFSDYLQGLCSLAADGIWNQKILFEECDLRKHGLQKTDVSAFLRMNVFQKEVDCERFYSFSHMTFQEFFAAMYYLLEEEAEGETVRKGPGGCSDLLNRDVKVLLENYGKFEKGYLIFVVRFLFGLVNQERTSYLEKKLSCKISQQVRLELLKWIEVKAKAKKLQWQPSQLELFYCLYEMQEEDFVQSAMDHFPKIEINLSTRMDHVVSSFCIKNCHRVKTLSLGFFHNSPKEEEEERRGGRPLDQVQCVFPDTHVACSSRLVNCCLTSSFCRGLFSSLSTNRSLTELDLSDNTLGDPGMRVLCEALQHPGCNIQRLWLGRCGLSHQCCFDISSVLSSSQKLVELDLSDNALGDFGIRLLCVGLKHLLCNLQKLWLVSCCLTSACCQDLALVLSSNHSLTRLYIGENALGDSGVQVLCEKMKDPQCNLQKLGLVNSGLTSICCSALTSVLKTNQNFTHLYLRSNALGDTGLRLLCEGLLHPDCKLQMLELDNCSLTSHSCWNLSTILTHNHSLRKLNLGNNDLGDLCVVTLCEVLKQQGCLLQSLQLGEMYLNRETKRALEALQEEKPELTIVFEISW

| SMILES | Average (% positive control) (BMDCs) | cytotoxicity at 50 µM (BMDCs; [1]) [%] | cytotoxicity at 50 µM (BMDCs; [2]) [%] | Average (% positive control) (NLRP3 inflammasome) | Average IL-1β (NLRP3 inflammasome) [ng/mL] | IL-1β (NLRP3 inflammasome) |
| --- | --- | --- | --- | --- | --- | --- |
| O=C(Nc1ccccc1)Nc1ccc(C(=O)N2CCC2)cc1 [L01.008, 1-[4-(azetidine-1-carbon-yl)phenyl]-3-phenylurea] | 13.046 | 9.54 | 11 | 4.638 | 0.332 | 0.361 ng/mL and 0.324 ng/mL and 0.313 ng/mL |
| CC(C)CC(NC(=O)Nc1cccc(N2CCNC2=O)c1)c1nc(-c2nnc[nH]2)no1 (stereo not drawn) [L01.010, 3-{3-methyl-1-[3-(4H-1,2,4-triazol-3-yl)-1,2,4-oxadiazol-5-yl]butyl}-1-[3-(2-oxoimidazolidin-1-yl)phenyl]urea] | 7.822 | 5.72 | 5.64 | 0.822 | 0.059 | 0.065 ng/mL and 0.059 ng/mL and 0.053 ng/mL |
| CCOc1ccc(NC(=O)NCc2nc(-c3cccc(OC)c3)no2)cc1OCC [L01.013, 1-(3,4-diethoxyphenyl)-3-{[3-(3-methoxyphen-yl)-1,2,4-oxadiazol-5-yl]methyl}urea] | 10.303 | 7.54 | 8.75 | 1.677 | 0.120 | 0.118 ng/mL and 0.126 ng/mL and 0.117 ng/mL |
| O=C(Nc1ccccc1)Nc1ccc(NC(=O)C(F)F)cc1 [L01.016, 2,2-difluoro-N-{4-[(phenylcarbamoyl)-amino]phenyl}acet-amide] | 17.216 | 12.6 | 11.6 | 10.857 | 0.778 | 0.755 ng/mL and 0.723 ng/mL and 0.857 ng/mL |
| O=C(Nc1ccccc1)Nc1cccc(Br)c1 [L01.020, 3-(3-bromophenyl)-1-phenylurea] | 14.712 | 10.8 | 11.6 | 3.256 | 0.233 | 0.236 ng/mL and 0.231 ng/mL and 0.233 ng/mL |
| CC(C)C(=O)Nc1cccc(NC(=O)Nc2ccccc2)c1 [L01.023, 2-methyl-N-{3-[(phenyl-carbamoyl)amino]phen-yl}propanamide] | 7.611 | 5.57 | 5.1 | 1.021 | 0.073 | 0.065 ng/mL and 0.075 ng/mL and 0.080 ng/mL |
| Cc1cc(NC(=O)Nc2ccccc2)ccc1N1CCCC1 [L01.025, 3-[3-methyl-4-(pyrrol-idin-1-yl)phenyl]-1-phenylurea] | 19.631 | 14.4 | 15 | 5.130 | 0.368 | 0.333 ng/mL and 0.280 ng/mL and 0.490 ng/mL |
| COc1ccc(NC(=O)Nc2ccccc2)cc1Cl [L01.026, 3-(3-chloro-4-methoxy-phenyl)-1-phenylurea] | 14.776 | 10.8 | 9.23 | 6.911 | 0.495 | 0.452 ng/mL and 0.473 ng/mL and 0.562 ng/mL |
| O=C(Nc1ccccc1)Nc1cccc(NC(=O)c2ccoc2)c1 [L01.027, N-{3-[(phenylcarbamo-yl)amino]phenyl}furan-3-carboxamide] | 9.387 | 6.87 | 5.2 | 2.451 | 0.176 | 0.149 ng/mL and 0.197 ng/mL and 0.181 ng/mL |
| Cc1ccc(NC(=O)Nc2ccccc2)cc1NC(=O)NC1CC1 [L01.028, 3-cyclopropyl-1-{2-methyl-5-[(phenyl-carbamoyl)amino]-phenyl}urea] | 19.825 | 14.5 | 12.6 | 9.988 | 0.716 | 0.686 ng/mL and 0.757 ng/mL and 0.705 ng/mL |
| O=C1CN(c2ccccc2)C(=O)N1Cc1nc(-c2ccco2)no1 [L01.033, 3-{[3-(furan-2-yl)-1,2,4-oxadiazol-5-yl]methyl}-1-phenylimidazolidine-2,4-dione] | 11.108 | 8.13 | 8 | 2.698 | 0.193 | 0.197 ng/ml (2×) and 0.186 ng/ml |
| CS(=O)(=O)c1cc(NC(=O)Nc2ccccc2)ccc1Cl [L01.035, 3-(4-chloro-3-methane-sulfonylphenyl)-1-phenylurea] | 11.044 | 8.08 | 8.46 | 3.211 | 0.230 | 0.321 ng/mL and 0.189 ng/mL and 0.181 ng/mL |
| N#Cc1ccc(NC(=O)Nc2ccccc2)cc1 [L01.038, 1-(4-cyanophenyl)-3-phenylurea] | 16.337 | 12 | 12.8 | 1.956 | 0.140 | 0.166 ng/mL and 0.127 ng/mL and 0.128 ng/mL |
| Cc1ccc(NC(=O)Nc2ccccc2)cc1NC(=O)NC(C)C [L01.041, 3-(4-methyl-3-[(propan-2-yl)carbamoylamino}-phenyl)-1-phenylurea] | 32.832 | 24 | 24.4 | 23.826 | 1.708 | 1.508 ng/mL and 1.847 ng/mL and 1.769 ng/mL |
| O=C(NCc1nc(-c2cccnc2)no1)Nc1ccc([N+](=O)[O-])cc1Cl [L01.042, 1-(2-chloro-4-nitrophen-yl)-3-{[3-(pyridin-3-yl)-1,2,4-oxadiazol-5-yl]-methyl}urea] | 9.993 | 7.31 | 7.09 | 0.826 | 0.059 | 0.060 ng/mL and 0.069 ng/mL and 0.048 ng/mL |
| COc1ccccc1NC(=O)NCc1nc(-c2cccnc2)no1 [L01.043, 1-(2-methoxyphenyl)-3-{[3-(pyridin-3-yl)-1,2,4-oxadiazol-5-yl]methyl}-urea] | 11.039 | 8.08 | 8.07 | 3.697 | 0.265 | 0.282 ng/mL and 0.272 ng/mL and 0.242 ng/mL |
| O=C(Nc1ccccc1)Nc1cccc(N2CCOC2=O)c1 [L01.045, 1-[3-(2-oxo-1,3-oxazol-idin-3-yl)phenyl]-3-phenylurea] | 7.094 | 5.19 | 5.98 | 1.568 | 0.112 | 0.103 ng/mL and 0.116 ng/mL and 0.118 ng/mL |
